Data on eight compounds can be found in US6569878B1, “Substituted 4-amino-thiazol-2-yl compounds as cyclin-dependent kinase inhibitors” (Agouron Pharmaceuticals Inc., priority 1997, dated 2003).

Assay [1] has as its system M14 melanoma. Description: Inhibition of cell growth, MTT assay, M14 melanoma. The assay is classed as cell-based. Particulars: Homo sapiens. The procedure:
(§1) The water-insoluble purple formazan product was then detected spectrophotometrically. […] Plates were incubated for four hours before addition of inhibitor compounds. Different concentrations of inhibitor compounds were added in 0.5% (v/v) dimethylsulfoxide (15 μL/well), and cells were incubated at 37° C. (5% CO2) for four to six days (depending on cell type). At the end of the incubation, MTT was added to a final concentration of 0.2 mg/mL, and cells were incubated for 4 hours more at 37° C. After centrifugation of the plates and removal of medium, the absorbance of the formazan (solubilized in dimethylsulfoxide) was measured at 540 nm.

Assay [2] deals with RXF-393. Nature of the assay: Inhibition of cell growth, MTT assay, RXF-393. The assay is classed as cell-based. The following applies: Homo sapiens; RXF-393, MTT assay. Here is the method: as §1
In general terms: Tetrazolium dyes change colour on reduction, which living cells bring about.

For assay [3], the target named is T1, CDK2/cyclin A (Homo sapiens, UniProt P24941).
T1 construct: made in house; host or cells: CDK2: insect cells (baculovirus); cyclin A: E. coli, then limited proteolysis
Description: Inhibition of CDK2/cyclin A retinoblastoma kinase activity. The assay is classed as biochemical. The following applies: read-out: Ki CDK 2/A. An outline of the steps:
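Baculovirus-expressed CDK2 with excess proteolyzed cyclin A (or purified complex), 150 nM or 5 nM, phosphorylating an Rb fragment with 25 μM [32/33P]ATP, pH 7.4, 30° C, 20 min. Filter-captured radioactivity by phosphorimager; apparent Ki from fits to competitive or tight-binding competitive inhibition using measured ATP Km.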

For assay [4], the system named is Saos-2. Nature of the assay: Inhibition of cell growth, MTT assay, Saos-2. The following applies: Homo sapiens; Saos-2, MTT assay. The assay is classed as cell-based. An outline of the steps:
(§2)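 Cells rested 4 h after plating, then exposed to graded compound concentrations in 0.5% (v/v) DMSO for four to six days (cell-type dependent) at 37° C, 5% CO2. Viability was read by MTT (0.2 mg/mL final, 4 h at 37° C), with DMSO-solubilized formazan measured at 540 nm.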

Assay [5] relates to U2-OS. Nature of the assay: Inhibition of cell growth, MTT assay, U2-OS. The following applies: Homo sapiens, U2OS. The assay is classed as cell-based. An outline of the steps:
as §2

Assay [6] concerns MDA-MB-468. Nature of the assay: Inhibition of cell growth, MTT assay, MDA-MB-468. The assay is classed as cell-based. The following applies: Homo sapiens; MDA-MB-468, MTT assay. The procedure:
as §1

Assay [7] deals with phosphorylation of the retinoblastoma protein (pRb) in HCT-116 cells. Nature of the assay: pRb immunoblotting (anti-Rb antibody). The assay is classed as cell-based, human. Particulars: five micromolar of each compound for 12 hours, western blot. Here is the method:
(§3) The ability of compounds to inhibit phosphorylation of the retinoblastoma protein (pRb) was assessed by western blot analysis. An anti-Rb antibody was used to measure the conversion of hyper-phosphorylated pRb to hypo-phosphorylated pRb.
(§4) Human colon tumor cells (HCT-116 cells; 5×10^6) were plated on […] dishes and allowed to grow overnight. Five micromolar of each compound was added for 12 hours. The cells were then collected and centrifuged. The cell pellets were lysed by the addition of 100 μL lysis buffer (50 mM HEPES (pH 7.0), 250 mM NaCl, 5 mM ethylenediaminetetraacetic acid, 0.1% Nonidet P-40, 1 mM dithiothreitol, 2 mM sodium pyrophosphate, 1 mM sodium orthovanadate, 1 μg/ml aprotonin, 1 μg/ml leupeptin, 50 μg/ml phenylmethylsulfonyl fluoride). Forty micrograms of protein were separated by sodium dodecyl sulfate-polyacrylamide gel electrophoresis (SDS-PAGE) on a 6% gel. The proteins were transferred to nitrocellulose and blocked with 5% blocking buffer in Tris-buffered saline overnight. The anti-Rb antibody (Pharmingen), the anti-phospho-Rb (Ser 780) antibody (MBL), and secondary antibody were incubated for 1 hour at room temperature followed by three wash steps in 0.01% Tween-20 in Tris-buffered saline. The Rb protein was detected using chemiluminescence according to the manufacturer (Amersham).

Assay [8] deals with HCT116. Description: Inhibition of cell growth, MTT assay, HCT116. The assay is classed as cell-based, human. Particulars: Homo sapiens, HCT-116. An outline of the steps:
as §2

In assay [9] the test system is MCF-7. Nature of the assay: Inhibition of cell growth, MTT assay, MCF-7. The assay is classed as cell-based. Particulars: Homo sapiens, MCF7; MCF-7, MTT assay. Here is the method:
as §1

Assay [10] concerns COLO-205. Nature of the assay: Inhibition of cell growth, MTT assay, COLO-205. The assay is classed as cell-based. Particulars: Homo sapiens; COLO-205, MTT assay. The procedure: as §1
Assay [11] has as its target T2, complex of human CDK4 and cyclin D3 (Homo sapiens, UniProt P11802).
T2 construct: made in house; host or cells: insect cells, co-infected with baculovirus
Nature of the assay: Inhibition of CDK4/cyclin D retinoblastoma kinase activity (D-type cyclin is D3). The assay is classed as biochemical. Particulars: superscript a: D-type cyclin is D3, read-out: Ki CDK 4/D. Summed up:
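Radiometric assay: [32P]- or [33P]ATP phosphate incorporation into Rb substrate at 30°C for 20 min, stopped with EDTA, filter-captured and phosphorimaged.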

Assay [12] addresses T3, human CDK1 (cdc2) and cyclin B (Homo sapiens, UniProt P06493).
T3 construct: purchased New England Biolabs (Beverly Mass.)
Nature of the assay: Inhibition of CDK1(cdc2)/cyclin B histone H1 kinase activity. The assay is classed as biochemical. Particulars: read-out: Ki CDK 1/B. Summed up:
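CDK1/cyclin B (commercial, or CDK1/GST-cyclin B1 from co-infected insect cells) phosphorylated histone H1 with 25 μM [32/33P]ATP at pH 7.4, 30° C for 20 min, 2% DMSO. Product captured on phosphocellulose and read by phosphorimager; apparent Ki from competitive or tight-binding fits, with Km for ATP determined.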

Assay [13] relates to pRb phosphorylation at serine 780 in HCT-116 cells. Nature of the assay: pRb immunoblotting (anti-phospho-Rb (ser780) antibody). The assay is classed as cell-based, human. Particulars: five micromolar of each compound for 12 hours, western blot, anti-phospho-Rb (Ser 780) antibody. Here is the method: as §3, §4
The target of assay [14] is T4, complex of cyclin D1 and a fusion protein of human CDK4 and glutathione-S-transferase (GST-CDK4) (Homo sapiens, UniProt P11802).
T4 construct: made in house; host or cells: insect cells, co-infected with baculovirus
Nature of the assay: Inhibition of CDK4/cyclin D retinoblastoma kinase activity (D-type cyclin is D1). The assay is classed as biochemical. The following applies: superscript b: D-type cyclin is D1, read-out: Ki CDK 4/D. The procedure: Cyclin-dependent kinase activity was measured by quantifying the enzyme-catalyzed, time-dependent incorporation of radioactive phosphate from [^32P]ATP or [^33P]ATP into a protein substrate. Unless noted otherwise, assays were performed in 96-well plates in a total volume of 50 μL, in the presence of 10 mM HEPES (N-[2-hydroxyethyl]piperazine-N′-[2-ethanesulfonic acid]) (pH 7.4), 10 mM MgCl2, 25 μM adenosine triphosphate (ATP), 1 mg/mL ovalbumin, 5 μg/mL leupeptin, 1 mM dithiothreitol, 10 mM β-glycerophosphate, 0.1 mM sodium vanadate, 1 mM sodium fluoride, 2.5 mM ethylene glycol-bis(β-aminoethyl ether)-N,N,N′N′-tetraacetic acid (EGTA), 2% (v/v) dimethylsulfoxide, and 0.03-0.4 μCi [^32/33P]ATP per reaction. Reactions were initiated with enzyme, incubated at 30° C., and terminated after 20 minutes by the addition of ethylenediaminetetraacetic acid (EDTA) to 250 mM. The phosphorylated substrate was then captured on a nitrocellulose or phosphocellulose membrane using a 96-well filtration manifold, and unincorporated radioactivity was removed by repeated washing with 0.85% phosphoric acid. Radioactivity was quantified by exposing the dried membranes to a phosphorimager.
Apparent Ki values were measured by assaying enzyme activity in the presence of different inhibitor compound concentrations and subtracting the background radioactivity measured in the absence of enzyme. The kinetic parameters (kcat, Km for ATP) were measured for each enzyme under the usual assay conditions by determining the dependence of initial rates on ATP concentration. Inhibition data were fit to an equation for competitive inhibition using Kaleidagraph (Synergy Software), or were fit to an equation for competitive tight-binding inhibition using the software KineTic (BioKin, Ltd.).
A complex of human CDK4 and cyclin D3, or a complex of cyclin D1 and a fusion protein of human CDK4 and gluathione-S-transferase (GST-CDK4), or a complex of human CDK4 and genetically truncated (1-264) cyclin D3, was purified using traditional biochemical chromatographic techniques from insect cells that had been co-infected with the corresponding baculovirus expression vectors (see e.g., Meijer and Kim, “Chemical Inhibitors of Cyclin-Dependent Kinases,” Methods in Enzymol,. vol. 283 (1997), pp. 113-128.). The enzyme complex (5 or 50 nM) was assayed with 0.3-0.5 μg of purified recombinant retinoblastoma protein fragment (Rb) as a substrate. The engineered Rb fragment (residues 386-928 of the native retinoblastoma protein; 62.3 kDa) contains the majority of the phosphorylation sites found in the native 106-kDa protein, as well as a tag of six histidine residues for ease of purification. Phosphorylated Rb substrate was captured by microfiltration on a nitrocellulose membrane and quantified using a phosphorimager as described above. For measurement of tight-binding inhibitors, the enzyme complex concentration was lowered to 5 nM, and the assay duration was extended to 60 minutes, during which the time-dependence of product formation was linear.

One may read the IC50 as the concentration that inhibits the measured activity by half. For orientation: IC90 means the concentration needed for an effect of 90%. High values mean a need for much substance, low ones an effect from little substance.

Structures are written as SMILES. Where two headings read alike, the source gives them in different places. A value given as a limit tells only on which side of the number the result lay.

T2 sequence (P11802 whole entry): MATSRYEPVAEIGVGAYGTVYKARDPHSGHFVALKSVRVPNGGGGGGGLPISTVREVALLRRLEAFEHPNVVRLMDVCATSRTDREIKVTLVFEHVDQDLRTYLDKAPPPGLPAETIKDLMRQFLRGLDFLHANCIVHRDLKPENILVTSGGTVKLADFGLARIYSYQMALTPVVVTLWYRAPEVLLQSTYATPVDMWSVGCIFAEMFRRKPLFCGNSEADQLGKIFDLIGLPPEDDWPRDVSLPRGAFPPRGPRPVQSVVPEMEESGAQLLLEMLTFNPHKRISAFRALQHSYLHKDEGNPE
T2 sequence (P30281 whole entry partner): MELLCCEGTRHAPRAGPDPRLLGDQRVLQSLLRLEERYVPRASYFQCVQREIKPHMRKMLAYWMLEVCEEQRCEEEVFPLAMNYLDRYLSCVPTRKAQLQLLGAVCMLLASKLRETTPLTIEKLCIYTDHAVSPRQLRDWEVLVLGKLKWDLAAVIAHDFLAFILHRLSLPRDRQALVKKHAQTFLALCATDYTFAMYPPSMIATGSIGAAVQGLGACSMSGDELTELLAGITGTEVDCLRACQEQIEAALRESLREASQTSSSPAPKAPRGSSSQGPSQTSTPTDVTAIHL
T4 sequence (P11802 whole entry, the tested form may be a part): as the sequence (P11802 whole entry) above
T4 sequence (P24385 whole entry partner, the tested form may be a part): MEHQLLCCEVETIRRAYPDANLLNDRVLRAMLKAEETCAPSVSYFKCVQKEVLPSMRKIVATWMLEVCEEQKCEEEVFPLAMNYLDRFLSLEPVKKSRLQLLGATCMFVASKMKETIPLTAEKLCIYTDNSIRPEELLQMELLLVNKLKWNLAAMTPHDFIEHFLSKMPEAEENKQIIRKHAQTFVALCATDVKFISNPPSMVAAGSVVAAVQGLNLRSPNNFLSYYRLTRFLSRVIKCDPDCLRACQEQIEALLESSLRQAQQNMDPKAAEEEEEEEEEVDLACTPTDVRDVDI
T3 sequence (P06493 whole entry): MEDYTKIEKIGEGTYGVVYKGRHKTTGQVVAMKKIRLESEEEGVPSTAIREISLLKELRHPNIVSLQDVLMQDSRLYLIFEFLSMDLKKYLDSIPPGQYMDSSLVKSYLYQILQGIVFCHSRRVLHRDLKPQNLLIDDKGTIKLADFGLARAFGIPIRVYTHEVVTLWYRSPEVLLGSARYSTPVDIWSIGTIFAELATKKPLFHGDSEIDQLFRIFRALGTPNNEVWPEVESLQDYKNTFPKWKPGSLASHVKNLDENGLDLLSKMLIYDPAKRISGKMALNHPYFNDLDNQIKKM
T3 sequence (P14635 whole entry partner): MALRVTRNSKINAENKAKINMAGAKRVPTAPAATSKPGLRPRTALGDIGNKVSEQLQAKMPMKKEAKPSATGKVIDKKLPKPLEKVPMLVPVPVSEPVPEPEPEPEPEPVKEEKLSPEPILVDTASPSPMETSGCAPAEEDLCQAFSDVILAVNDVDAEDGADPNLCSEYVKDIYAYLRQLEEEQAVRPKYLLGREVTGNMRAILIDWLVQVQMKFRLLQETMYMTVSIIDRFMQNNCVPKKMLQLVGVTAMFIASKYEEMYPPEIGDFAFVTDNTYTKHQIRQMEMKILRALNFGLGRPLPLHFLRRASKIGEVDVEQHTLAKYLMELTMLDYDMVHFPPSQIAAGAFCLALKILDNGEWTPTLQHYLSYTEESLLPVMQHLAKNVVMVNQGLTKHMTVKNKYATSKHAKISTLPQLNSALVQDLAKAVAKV

Turning to `Nc1nc(Nc2ccc(S(N)(=O)=O)cc2)sc1C(=O)c1c(F)cccc1F` [C(85), 4-[4-Amino-5-(2,6-difluoro-benzoyl)-thiazol-2-ylamino]-benzenesulfonamide], the IC50 in [1] amounted to 710 nM; in assay [2], 1200 nM; in assay [4], 280 nM; in assay [5], 1700 nM; in assay [6] it was 220 nM; in assay [8], 250 nM. In addition, the IC50 in assay [9] came out at 3900 nM; in assay [10], 240 nM. Further, the IC90 in assay [1] was found to be 2200 nM; in [2], 3000 nM; in assay [4] it was 670 nM; in [5], 2800 nM; in [6], 590 nM; in assay [8], 560 nM. The IC90 was 13 µM in assay [9] and 580 nM in assay [10]. Also, the Ki in assay [3] was found to be 0.0057 µM; in [11] (apparent Ki), 0.013 µM; in [12], 2.2 nM. Besides, the “Inhibits pRb phosphorylation” value in assay [7] is given as “+”. In assay [13], the “Inhibits pRb (ser 780) phosphorylation” value is “+”.

For `Nc1cccc(C(=O)c2sc(Nc3ccccc3)nc2N)c1` [D(1), (3-Amino-phenyl)-(4-amino-2-phenylamino-thiazol-5-yl)-methanone], the Ki in [3] was 0.9 µM; in assay [14], 0.49 µM.

For the compound `Nc1nc(Nc2ccccc2)sc1C(=O)c1ccccc1` [I(1)*], the Ki came out at 0.46 µM in assay [3], 0.102 µM in assay [14], 0.64 µM in assay [11] (apparent Ki) and 500 nM in assay [12].

As for `CC(=O)c1sc(Nc2ccccc2)nc1N` [I(2)*], the Ki is 8.7 µM in assay [3], roughly 30 µM in assay [14] (μM) and 8 µM in assay [11] (apparent Ki).

Regarding `CC(=O)c1sc(NCc2ccccc2)nc1N` [I(3)*], the Ki in assay [14] (μM) was greater than 100 µM; in [11] (μM), greater than 5 µM.

Consider `Nc1nc(Nc2ccccc2)sc1C(=O)C1CC1` [I(4)*], for which the Ki in assay [3] (μM) is 4.3 µM; in assay [14] (μM), 3.1 µM; in [12], 3900 nM.

`CCNc1nc(N)c(C(=O)c2ccccc2)s1` [I(5)*]: the Ki in assay [3] stood at 4.6 µM; in assay [14], 0.87 µM; in assay [11] (apparent Ki) it was 1.1 µM; in assay [12], 4500 nM.

Take `Nc1nc(Nc2ccc(N3CCNCC3)cc2)sc1C(=O)c1c(F)cccc1F` [J(2), [4-Amino-2-(4-piperazin-1-yl-phenylamino)-thiazol-5-yl]-(2,6-difluoro-phenyl)-methanone]: the IC50 was 650 nM in assay [1]; 550 nM in assay [2]; 580 nM in [4]; 1700 nM in assay [5]; 340 nM in assay [6]; 300 nM in [8]. The IC50 in [9] came to 480 nM; in assay [10] it was 900 nM. Besides, the IC90 in assay [1] is 2000 nM; in assay [2] it was 1100 nM; in [4], 1300 nM; in [5] it was 2800 nM; in [6], 700 nM; in assay [8] it was 730 nM. For the same compound, the results for the IC90 in assay [9] and in [10] were 1.7 µM and 2700 nM, respectively. In addition, the figures for the Ki in assay [3], in assay [11] (apparent Ki) and in [12] were 0.135 µM, 0.0064 µM and 405 nM, respectively. For the same compound, in assay [7], the “Inhibits pRb phosphorylation” value was “+”. In assay [13], the “Inhibits pRb (ser 780) phosphorylation” value is listed as “+”.
